Measurements published in ChEMBL document CHEMBL3885881, “DrugMatrix”.

Species: Rattus norvegicus
Experiment: DrugMatrix - Regimen: Daily Repeat
Format: toxicity, organism-based, Sprague-Dawley
Set-up: regimen Daily Repeat, gender Male, age 6-8 weeks
Conditions: in vivo, po, route oral GAVAGE, vehicle 100 % WATER; for ABSOLUTE BASOPHIL / ABSOLUTE EOSINOPHIL / ABSOLUTE LYMPHOCYTE / ABSOLUTE MONOCYTE / ABSOLUTE SEGMENTED NEUTROPHIL / BASOPHIL / EOSINOPHIL / ERYTHROCYTE COUNT / HEMATOCRIT / HEMOGLOBIN / LEUKOCYTE COUNT / LYMPHOCYTE / MEAN CORPUSCULAR HEMOGLOBIN / MEAN CORPUSCULAR HEMOGLOBIN CONCENTRATION / MEAN CORPUSCULAR VOLUME / MONOCYTE / NEUTROPHIL / NUCLEATED RED BLOOD CELLS / PLATELET COUNT: tissue Blood; for ALANINE AMINOTRANSFERASE / ALBUMIN / ALKALINE PHOSPHATASE / ASPARTATE AMINOTRANSFERASE / BLOOD UREA NITROGEN / CARBON DIOXIDE / CHLORIDE / CHOLESTEROL / CREATINE PHOSPHOKINASE / CREATININE / GLUCOSE / LACTATE DEHYDROGENASE / LIPASE / PHOSPHORUS / POTASSIUM / SODIUM / TOTAL BILIRUBIN / TOTAL PROTEIN / URIC ACID: tissue Plasma
[1] = 0 mg/kg, 72 h, dose level Control, time 3 day
[2] = 0 mg/kg, 120 h, dose level Control, time 5 day
[3] = 2 mg/kg, 72 h, dose level Low, time 3 day

## CC(C)(C)c1ccc(C(=O)CCCN2CCC(OC(c3ccccc3)c3ccccc3)CC2)cc1 [EBASTINE]
[1]
  ABSOLUTE BASOPHIL: 0 CELLS/uL
  ABSOLUTE EOSINOPHIL: 123.17 CELLS/uL
  ABSOLUTE LYMPHOCYTE: 12677.83 CELLS/uL
  ABSOLUTE MONOCYTE: 66.17 CELLS/uL
  ABSOLUTE SEGMENTED NEUTROPHIL: 1149.5 CELLS/uL
  BASOPHIL: 0%
  EOSINOPHIL: 0.83%
  ERYTHROCYTE COUNT: 5.26 x10E6/uL
  HEMATOCRIT: 33.07%
  HEMOGLOBIN: 13.43 G/DL
  LEUKOCYTE COUNT: 14.02 x10E3/uL
  LYMPHOCYTE: 90.17%
  MEAN CORPUSCULAR HEMOGLOBIN: 25.62 pg
  MEAN CORPUSCULAR HEMOGLOBIN CONCENTRATION: 40.65 G/DL
  MEAN CORPUSCULAR VOLUME: 63 fL
  MONOCYTE: 0.5%
  NEUTROPHIL: 8.5%
  NUCLEATED RED BLOOD CELLS: 0.17 /100WBC
  PLATELET COUNT: 1142.83 x10E3/uL
  ALANINE AMINOTRANSFERASE: 45.17 u/L
  ALBUMIN: 3.78 G/DL
  ALKALINE PHOSPHATASE: 340.17 u/L
  ASPARTATE AMINOTRANSFERASE: 77.33 u/L
  BLOOD UREA NITROGEN: 14.67 mg/dL
  CARBON DIOXIDE: 28.67 mmol/L
  CHLORIDE: 101.17 MEQ/L
  CHOLESTEROL: 77.67 mg/dL
  CREATINE PHOSPHOKINASE: 263.67 u/L
  CREATININE: 0.15 mg/dL
  GLUCOSE: 169.33 mg/dL
  LACTATE DEHYDROGENASE: 230 u/L
  LIPASE: 9.67 u/L
  PHOSPHORUS: 11.8 mg/dL
  POTASSIUM: 5.91 MEQ/L
  SODIUM: 142.88 MEQ/L
  TOTAL BILIRUBIN: 0.22 mg/dL
  TOTAL PROTEIN: 5.7 G/DL
  URIC ACID: 1.35 mg/dL
[2]
  ABSOLUTE BASOPHIL: 0 CELLS/uL
  ABSOLUTE EOSINOPHIL: 125 CELLS/uL
  ABSOLUTE LYMPHOCYTE: 13809 CELLS/uL
  ABSOLUTE MONOCYTE: 351 CELLS/uL
  ABSOLUTE SEGMENTED NEUTROPHIL: 1581.67 CELLS/uL
  BASOPHIL: 0%
  EOSINOPHIL: 0.67%
  ERYTHROCYTE COUNT: 5.53 x10E6/uL
  HEMATOCRIT: 34.83%
  HEMOGLOBIN: 13.9 G/DL
  LEUKOCYTE COUNT: 15.87 x10E3/uL
  LYMPHOCYTE: 87.5%
  MEAN CORPUSCULAR HEMOGLOBIN: 25.25 pg
  MEAN CORPUSCULAR HEMOGLOBIN CONCENTRATION: 40.08 G/DL
  MEAN CORPUSCULAR VOLUME: 63.05 fL
  MONOCYTE: 2.17%
  NEUTROPHIL: 9.67%
  NUCLEATED RED BLOOD CELLS: 0 /100WBC
  PLATELET COUNT: 1044 x10E3/uL
  ALANINE AMINOTRANSFERASE: 50.67 u/L
  ALBUMIN: 4.33 G/DL
  ALKALINE PHOSPHATASE: 395 u/L
  ASPARTATE AMINOTRANSFERASE: 86 u/L
  BLOOD UREA NITROGEN: 15.33 mg/dL
  CARBON DIOXIDE: 29.33 mmol/L
  CHLORIDE: 101.5 MEQ/L
  CHOLESTEROL: 71.33 mg/dL
  CREATINE PHOSPHOKINASE: 323.17 u/L
  CREATININE: 0.18 mg/dL
  GLUCOSE: 145.67 mg/dL
  LACTATE DEHYDROGENASE: 389.5 u/L
  LIPASE: 9.83 u/L
  PHOSPHORUS: 11.35 mg/dL
  POTASSIUM: 6.39 MEQ/L
  SODIUM: 142.77 MEQ/L
  TOTAL BILIRUBIN: 0.18 mg/dL
  TOTAL PROTEIN: 6.1 G/DL
  URIC ACID: 1.52 mg/dL
[3]
  ABSOLUTE BASOPHIL: 0 CELLS/uL
  ABSOLUTE EOSINOPHIL: 62.33 CELLS/uL
  ABSOLUTE LYMPHOCYTE: 12860.33 CELLS/uL
  ABSOLUTE MONOCYTE: 62.33 CELLS/uL
  ABSOLUTE SEGMENTED NEUTROPHIL: 1348.33 CELLS/uL
  BASOPHIL: 0%
  EOSINOPHIL: 0.33%
  ERYTHROCYTE COUNT: 5.22 x10E6/uL
  HEMATOCRIT: 34.2%
  HEMOGLOBIN: 13.67 G/DL
  LEUKOCYTE COUNT: 14.33 x10E3/uL
  LYMPHOCYTE: 89.67%
  MEAN CORPUSCULAR HEMOGLOBIN: 26.2 pg
  MEAN CORPUSCULAR HEMOGLOBIN CONCENTRATION: 40 G/DL
  MEAN CORPUSCULAR VOLUME: 65.5 fL
  MONOCYTE: 0.33%
  NEUTROPHIL: 9.67%
  NUCLEATED RED BLOOD CELLS: 0 /100WBC
  PLATELET COUNT: 1183.33 x10E3/uL
  ALANINE AMINOTRANSFERASE: 47.67 u/L
  ALBUMIN: 3.87 G/DL
  ALKALINE PHOSPHATASE: 322 u/L
  ASPARTATE AMINOTRANSFERASE: 75.33 u/L
  BLOOD UREA NITROGEN: 14.33 mg/dL
  CARBON DIOXIDE: 32.67 mmol/L
  CHLORIDE: 99.67 MEQ/L
  CHOLESTEROL: 75.67 mg/dL
  CREATINE PHOSPHOKINASE: 258.67 u/L
  CREATININE: 0.13 mg/dL
  GLUCOSE: 151 mg/dL
  LACTATE DEHYDROGENASE: 188 u/L
  LIPASE: 10 u/L
  PHOSPHORUS: 11.23 mg/dL
  POTASSIUM: 6.55 MEQ/L
  SODIUM: 141.57 MEQ/L
  TOTAL BILIRUBIN: 0.2 mg/dL
  TOTAL PROTEIN: 5.63 G/DL
  URIC ACID: 1.3 mg/dL
